One experiment concerns the target T1, NK1 receptor (Cavia porcellus, UniProt P30547).
T1 construct: from tissue; host or cells: isolated guinea pig ileum
Description: Test for NK1 receptor antagonist: substance P concentration-response in isolated guinea pig ileum, Schild analysis. The conditions noted are these: antagonism of substance P, 10 min pretreatment, Schild method. It is filed as cell-based. As for the experimental part:
(1) Test for NK1 Receptor Antagonist
The method used was according to the method proposed by S. Dion et al. (Dion et al., Life Sciences 41 (1987): 2269), to which minor modifications were made.
Guinea pigs were stunned by a blow on the head and were exsanguinated from the carotid artery and ileum was isolated. The ileum was mounted in an organ bath containing Tyrode's solution which was maintained at 32° C. and gased with 95% O2 and 5% CO2. The ileum was subjected to a resting tension of 1-gram and allowed to equilibrate for 20 minutes before the experiment was started. As a control, a concentration-response curve for substance P obtained in the absence of test compounds was used. The NK1 receptor antagonist activity of each test compound was determined by a concentration-response curve obtained by pretreating at least three concentrations of the test compound for 10 minutes and subsequently applying substance P in a cumulative manner. The Kb values were determined according to the method proposed by Schild and the results are shown in Table 1 (Schild Brit. J. Pharmacol. 14 (1959): 49).
The composition of the Tyrode's solution was as follows: NaCl=136.9, KCl=2.7, CaCl2.2H2O=2.5, MgCl2.6H2O=1.0, NaH2PO4.2H2O=0.4, NaHCO3=11.9, glucose=11.1 (mmol/L)

For the next experiment, the system named is Guinea pigs. Description: Cystometry test on guinea pigs with cut spinal cord (effective bladder capacity). Particulars: guinea pig. It is filed as in vivo. The source says: (2) Cystometry Test on Guinea Pigs
The method used was according to the method proposed by J S. Peterson et al. (Peterson J S. et al., J. Pharmacol. Methods 21 (1989): 231), to which minor modifications were made.
Guinea pigs were anesthetized with halothane and the tenth thoracic spinal cord was cut in each animal. Subsequently, both ureters were ligated and were cut on the kidney-side. Polyethylene catheters were inserted into the bladder to provide an injection pathway for physiological saline and a pathway for the measurement of intravesical pressure. Each animal was restricted in a Ballman cage and was left for more than 2 hours. Subsequently, room-temperature saline was injected through the bladder catheter into the bladder at a rate of 6 mL/hr to conduct a cystometry test. After the effective bladder capacity was stabilized, a test compound was intravenously administered from the jugular vein. The effective bladder capacity is defined as the volume of saline injected from one urination to the next. The effect of each test compound was determined as the increase in the average bladder volume, which was determined by taking difference between the average bladder volume measured 30 minutes prior to the administration of the test compound and the average bladder volume measured every 30 minutes after the administration of the test compound.

T1 sequence (P30547 whole entry): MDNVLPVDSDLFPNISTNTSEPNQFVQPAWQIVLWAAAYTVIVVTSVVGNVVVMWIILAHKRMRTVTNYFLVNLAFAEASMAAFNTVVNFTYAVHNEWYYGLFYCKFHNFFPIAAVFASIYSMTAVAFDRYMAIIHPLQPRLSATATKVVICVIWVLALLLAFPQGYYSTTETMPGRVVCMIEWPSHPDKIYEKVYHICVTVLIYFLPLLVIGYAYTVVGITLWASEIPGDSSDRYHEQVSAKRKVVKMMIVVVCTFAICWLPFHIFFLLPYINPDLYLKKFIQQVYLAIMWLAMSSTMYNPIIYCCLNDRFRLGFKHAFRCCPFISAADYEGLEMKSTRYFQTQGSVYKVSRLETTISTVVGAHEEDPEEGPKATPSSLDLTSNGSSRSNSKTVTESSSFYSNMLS

The term Kb denotes the equilibrium dissociation constant of an antagonist, usually derived from a functional assay. For the molecule `O=C1c2c(-c3ccccc3)cc(N3CCC(N4CCCC4)CC3)nc2OCCCN1Cc1cc(C(F)(F)F)cc(C(F)(F)F)c1` [Example 1, 5-[3,5-bis(trifluoromethyl)benzyl]-6-oxo-7-phenyl-9-[4-(pyrrolidine-1-yl)piperidine-1-yl]-2,3,4,5-tetrahydro-6H-pyrido[2,3-b][1,5]oxazocine], the antagonist dissociation constant (Kb) at NK1 receptor stood at 0.224 nM. Consider `O=C1c2c(-c3ccc(F)cc3)cc(N3CCC(N4CCCC4)CC3)nc2OCCCN1Cc1cc(C(F)(F)F)cc(C(F)(F)F)c1` [Example 4, 5-[3,5-bis(trifluoromethyl)benzyl]-7-(4-fluorophenyl)-6-oxo-9-[4-(pyrrolidine-1-yl)piperidine-1-yl]-2,3,4,5-tetrahydro-6H-pyrido[2,3-b][1,5]oxazocine], for which the Kb on NK1 receptor amounted to 0.148 nM. On to `Cc1ccccc1-c1cc(N2CCC(N3CCCC3)CC2)nc2c1C(=O)N(Cc1cc(C(F)(F)F)cc(C(F)(F)F)c1)CCCO2` [Example 7, 5-[3,5-bis(trifluoromethyl)benzyl]-7-(2-methylphenyl)-6-oxo-9-[4-(pyrrolidine-1-yl)piperidine-1-yl]-2,3,4,5-tetrahydro-6H-pyrido[2,3-b][1,5]oxazocine], for which the “Increase in bladder capacity” value with Guinea pigs (0.3 mg/kg i.v.) turned out to be 24.2%; with Guinea pigs (1 mg/kg i.v.), 46.0%. Besides, the Kb at NK1 receptor worked out at 0.21 nM. As to `Cc1ccccc1-c1cc(N2CCC(N(C)C)CC2)nc2c1C(=O)N(Cc1cc(C(F)(F)F)cc(C(F)(F)F)c1)CCCO2` [Example 8, 5-[3,5-bis(trifluoromethyl)benzyl]-9-[4-(dimethylamino)piperidine-1-yl]-7-(2-methylphenyl)-6-oxo-2,3,4,5-tetrahydro-6H-pyrido[2,3-b][1,5]oxazocine], the Kb on NK1 receptor worked out at 0.275 nM. Take `Cc1ccccc1-c1cc(N2CCC(N3CCOCC3)CC2)nc2c1C(=O)N(Cc1cc(C(F)(F)F)cc(C(F)(F)F)c1)CCCO2` [Example 9, 5-[3,5-bis(trifluoromethyl)benzyl]-7-(2-methylphenyl)-9-[4-(morpholine-4-yl)piperidine-1-yl]-6-oxo-2,3,4,5-tetrahydro-6H-pyrido[2,3-b][1,5]oxazocine]: the antagonist equilibrium constant (Kb) at NK1 receptor amounted to 0.0848 nM. Take `Cc1ccccc1-c1cc(N2CCC(N3CCCC3=O)CC2)nc2c1C(=O)N(Cc1cc(C(F)(F)F)cc(C(F)(F)F)c1)CCCO2` [Example 10, 5-[3,5-bis(trifluoromethyl)benzyl]-7-(2-methylphenyl)-6-oxo-9-[4-(2-oxopyrrolidine-1-yl)piperidine-1-yl]-2,3,4,5-tetrahydro-6H-pyrido[2,3-b][1,5]oxazocine]: on NK1 receptor, the Kb was 0.286 nM.

As for `CC(=O)NC1CCN(c2cc(-c3ccccc3C)c3c(n2)OCCCN(Cc2cc(C(F)(F)F)cc(C(F)(F)F)c2)C3=O)CC1` [Example 13, 9-[4-(acetylamino)piperidine-1-yl]-5-[3,5-bis(trifluoromethyl)benzyl]-7-(2-methylphenyl)-6-oxo-2,3,4,5-tetrahydro-6H-pyrido[2,3-b][1,5]oxazocine], on NK1 receptor, the Kb stood at 0.17 nM.

`Cc1ccc(-c2c3n(c(=O)c4ncccc24)CC[C@@H](C)CN(Cc2cc(C(F)(F)F)cc(C(F)(F)F)c2)C3=O)cc1` [TAK-637]: the “Increase in bladder capacity” value is listed as 12.0% with Guinea pigs (0.3 mg/kg i.v.), 23.8% with Guinea pigs (1 mg/kg i.v.) and 20.5% in the experiment with Guinea pigs (3 mg/kg i.v.).

For the origin of these results see patent publication US7030107B2, “Fused bicyclic pyridine derivatives as tachykinin receptor antagonists” (Kyorin Pharmaceutical.Co., Ltd., priority 2001, dated 2006).
